From patent publication US20180092866A1, “SUBSTITUTED N-([1,1'-BIPHENYL]-3-YL)-[1,1'-BIPHENYL]-3-CARBOXAMIDE ANALOGS AS INHIBITORS FOR BETA-CATENIN/B-CELL LYMPHOMA 9 INTERACTIONS” (University of Utah Research Foundation, priority 2015, published 2018)
Where a name gives a salt, the structure may show the parent alone.

What was measured:
[1] = target: T1, β-catenin/BCL9 protein-protein interactions (Homo sapiens, UniProt P35222); assay: AlphaScreen competitive inhibition assay, wild-type β-catenin/BCL9; type: binding; details: for Ki: wild-type β-catenin (residues 138-686)/biotinylated BCL9 26-mer, Ki derived from IC50, mean ± SD
T1 construct: C-terminally His6-tagged wild-type or mutant β-catenin (residues 138-686) proteins; made in house; host or cells: E. coli BL21 DE3
T1 sequence (P35222 138-686): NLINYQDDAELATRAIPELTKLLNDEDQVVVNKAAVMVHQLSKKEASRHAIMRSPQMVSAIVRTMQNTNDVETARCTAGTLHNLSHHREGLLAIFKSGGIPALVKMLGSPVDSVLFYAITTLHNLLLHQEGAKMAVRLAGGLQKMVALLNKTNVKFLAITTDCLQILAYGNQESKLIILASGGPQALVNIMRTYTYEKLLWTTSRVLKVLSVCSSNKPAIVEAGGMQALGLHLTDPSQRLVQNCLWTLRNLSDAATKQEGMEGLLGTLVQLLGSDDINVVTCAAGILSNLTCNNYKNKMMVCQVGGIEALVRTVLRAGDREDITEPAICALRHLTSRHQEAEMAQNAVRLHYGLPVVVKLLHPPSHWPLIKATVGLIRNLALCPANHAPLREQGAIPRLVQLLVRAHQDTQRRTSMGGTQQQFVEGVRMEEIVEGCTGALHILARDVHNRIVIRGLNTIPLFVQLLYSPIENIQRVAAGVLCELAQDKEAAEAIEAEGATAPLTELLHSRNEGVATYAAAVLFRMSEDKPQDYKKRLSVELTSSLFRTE
Experimental: The purity of the wild-type and mutant β-catenin proteins was all greater than 95% as determined by the SDS-PAGE gel analysis. Both the wild-type and mutant β-catenin proteins are stable under the testing conditions. Native non-denaturing gel electrophoresis was performed to confirm the homogeneity of the purified proteins. Experiments were performed in white opaque 384-well plates from PerkinElmer, and the samples were read on a Synergy 2 plate reader (Biotek) with a sensitivity setting of 200 using AlphaScreen protocol with excitation at 680 nm and emission at 570 nm. All dilutions were made in 1×assay buffer containing 25 mM HEPES (pH=7.0), 100 mM NaCl, 0.01% Triton X-100, and 0.1% BSA. In the AlphaScreen competitive inhibition assay, 40 nM of C-terminally His6-tagged wild-type or mutant β-catenin (residues 138-686) proteins was incubated with 5 nM of N-terminal biotinylated human BCL9 26-mer (residues 350-375) for 30 min at 4° C., and then different concentrations of the tested inhibitors in the assay buffer were added to make a final volume of 20 μL. The mixture was incubated at 4° C. for 2 h. The donor and acceptor beads were added to a final concentration of 10 μg/mL in 25 μL of assay buffer. The mixture was incubated at 4° C. for 1 h. The IC50 value was determined by nonlinear least-square analysis of GraphPad Prism 5.0. […] The Ki values were derived from the IC50 values by a reported method (Nikolovska-Coleska et al. (2004) Anal. Biochem. […]: 261-273). Experiments were performed in triplicate and carried out in the presence of 1% DMSO.

[2] = target: T2, β-catenin/E-cadherin PPIs (Homo sapiens, UniProt P35222); assay: AlphaScreen selectivity assay, β-catenin/BCL9 versus β-catenin/E-cadherin; type: binding
T2 construct: β-Catenin or its mutants (residues 138-686) was cloned into a pET-28b vector; made in house; host or cells: E. coli BL21 DE3
T2 sequence (P35222 138-686): T1 sequence (P35222 138-686)
Excerpt: Human BCL9 (residues 350-375), N-terminally biotinylated human BCL9 (residues 350-375), N-terminally fluorescein-labeled human BCL9 (residues 350-375), and N-terminally biotinylated human E-cadherin (residues 824-877) were synthesized by InnoPep Inc. (San Diego, Calif., www.innopep.com). All synthesized peptides were purified by HPLC with purity >95%. The structures were validated by LC/MS. The sequences are shown in Table 2 (Ahx, 6-aminohexanoic acid).
The purity of the wild-type and mutant β-catenin proteins was all greater than 95% as determined by the SDS-PAGE gel analysis. Both the wild-type and mutant β-catenin proteins are stable under the testing conditions. Native non-denaturing gel electrophoresis was performed to confirm the homogeneity of the purified proteins. Experiments were performed in white opaque 384-well plates from PerkinElmer, and the samples were read on a Synergy 2 plate reader (Biotek) with a sensitivity setting of 200 using AlphaScreen protocol with excitation at 680 nm and emission at 570 nm. All dilutions were made in 1×assay buffer containing 25 mM HEPES (pH=7.0), 100 mM NaCl, 0.01% Triton X-100, and 0.1% BSA. […] The IC50 value was determined by nonlinear least-square analysis of GraphPad Prism 5.0. […]

SMILES | relative inhibitory potency for β-catenin/BCL9 PPIs (in words) ([1]; AlphaScreen assay, comparison with named compound) | Ki [1] [µM] | selectivity for β-catenin/BCL9 over β-catenin/E-cadherin PPIs (in words) [2]
O=C(NCCCC(=O)N1CCNCC1)c1ccc(-c2cc(C(=O)Nc3ccc(O[C@H]4CCNC4)c(-c4ccc(F)cc4)c3)ccc2O[C@H]2CCNC2)cc1 [Compound 29, 4-(4-(5′-((4′-fluoro-6-((S)-pyrrolidin-1-ium-3-yloxy)-[1,1′-biphenyl]-3-yl)carbamoyl)-2′-((S)-pyrrolidin-1-ium-3-yloxy)-[1,1′-biphenyl]-4-ylcarboxamido)butanoyl) piperazin-1-ium] | comparable inhibitory potency for β-catenin/BCL9 PPIs as 21 | 2.1 ± 0.432 | much higher selectivity
Cc1ccccc1-c1cc(NC(=O)c2ccc(O[C@H]3CCNC3)c(-c3ccc(F)c(F)c3)c2)ccc1O[C@H]1CCNC1 [Compound 91a, 3′,4′-Difluoro-N-(2′-methyl-6-((S)-pyrrolidin-3-yloxy)-[1,1′-biphenyl]-3-yl)-6-((S)-pyrrolidin-3-yloxy)-[1,1′-biphenyl]-3-carboxamide dihydrochloride] |  | 36 ± 7.21 | 
Cc1cccc(-c2cc(NC(=O)c3ccc(O[C@H]4CCNC4)c(-c4ccc(F)c(F)c4)c3)ccc2O[C@H]2CCNC2)c1 [Compound 91b, 3′,4′-Difluoro-N-(3′-methyl-6-((S)-pyrrolidin-3-yloxy)-[1,1′-biphenyl]-3-yl)-6-((S)-pyrrolidin-3-yloxy)-[1,1′-biphenyl]-3-carboxamide dihydrochloride] |  | 40.8 ± 5.94 | 
Cc1ccc(-c2cc(NC(=O)c3ccc(O[C@H]4CCNC4)c(-c4ccc(F)c(F)c4)c3)ccc2O[C@H]2CCNC2)cc1 [Compound 91c, 3′,4′-Difluoro-N-(4′-methyl-6-((S)-pyrrolidin-3-yloxy)-[1,1′-biphenyl]-3-yl)-6-((S)-pyrrolidin-3-yloxy)-[1,1′-biphenyl]-3-carboxamide dihydrochloride] |  | 41.4 ± 9.16 | 
O=C(Nc1ccc(O[C@H]2CCNC2)c(-c2ccccc2C(F)(F)F)c1)c1ccc(O[C@H]2CCNC2)c(-c2ccc(F)c(F)c2)c1 [Compound 91d, 3′,4′-Difluoro-6-((S)-pyrrolidin-3-yloxy)-N-(6-((S)-pyrrolidin-3-yloxy)-2′-(trifluoromethyl)-[1,1′-biphenyl]-3-yl)-[1,1′-biphenyl]-3-carboxamide dihydrochloride] |  | 54.8 ± 6.24 | 
N#Cc1cccc(-c2cc(NC(=O)c3ccc(O[C@H]4CCNC4)c(-c4ccc(F)c(F)c4)c3)ccc2O[C@H]2CCNC2)c1 [Compound 91e, N-(3′-cyano-6-((S)-pyrrolidin-3-yloxy)-[1,1′-biphenyl]-3-yl)-3′,4′-difluoro-6-((S)-pyrrolidin-3-yloxy)-[1,1′-biphenyl]-3-carboxamide dihydrochloride] |  | 25.9 ± 5.58 | 
N#Cc1ccc(-c2cc(NC(=O)c3ccc(O[C@H]4CCNC4)c(-c4ccc(F)c(F)c4)c3)ccc2O[C@H]2CCNC2)cc1 [Compound 91f, N-(4′-cyano-6-((S)-pyrrolidin-3-yloxy)-[1,1′-biphenyl]-3-yl)-3′,4′-difluoro-6-((S)-pyrrolidin-3-yloxy)-[1,1′-biphenyl]-3-carboxamide dihydrochloride] |  | 29.5 ± 5.77 | 
NC(=O)c1cccc(-c2cc(NC(=O)c3ccc(O[C@H]4CCNC4)c(-c4ccc(F)c(F)c4)c3)ccc2O[C@H]2CCNC2)c1 [Compound 91g, N-(3′-carbamoyl-6-((S)-pyrrolidin-3-yloxy)-[1,1′-biphenyl]-3-yl)-3′,4′-difluoro-6-((S)-pyrrolidin-3-yloxy)-[1,1′-biphenyl]-3-carboxamide dihydrochloride] |  | 162 ± 8.69 | 
NC(=O)c1ccc(-c2cc(NC(=O)c3ccc(O[C@H]4CCNC4)c(-c4ccc(F)c(F)c4)c3)ccc2O[C@H]2CCNC2)cc1 [Compound 91h, N-(4′-carbamoyl-6-((S)-pyrrolidin-3-yloxy)-[1,1′-biphenyl]-3-yl)-3′,4′-difluoro-6-((S)-pyrrolidin-3-yloxy)-[1,1′-biphenyl]-3-carboxamide dihydrochloride] |  | 51.7 ± 6.15 | 
NS(=O)(=O)c1ccc(-c2cc(NC(=O)c3ccc(O[C@H]4CCNC4)c(-c4ccc(F)c(F)c4)c3)ccc2O[C@H]2CCNC2)cc1 [Compound 91i, 3′,4′-Difluoro-6-((S)-pyrrolidin-3-yloxy)-N-(6-((S)-pyrrolidin-3-yloxy)-4′-sulfamoyl-[1,1′-biphenyl]-3-yl)-[1,1′-biphenyl]-3-carboxamide dihydrochloride] |  | 11.1 ± 1.16 | 
Cc1cc(F)ccc1-c1cc(NC(=O)c2ccc(O[C@H]3CCNC3)c(-c3ccc(F)c(F)c3)c2)ccc1O[C@H]1CCNC1 [Compound 91j, 3′,4′-Difluoro-N-(4′-fluoro-2′-methyl-6-((S)-pyrrolidin-3-yloxy)-[1,1′-biphenyl]-3-yl)-6-((S)-pyrrolidin-3-yloxy)-[1,1′-biphenyl]-3-carboxamide dihydrochloride] |  | 27.3 ± 4.83 | 
O=C(Nc1ccc(O[C@H]2CCNC2)c(-c2cccc(-c3nn[nH]n3)c2)c1)c1ccc(O[C@H]2CCNC2)c(-c2ccc(F)c(F)c2)c1 [Compound 91k, 3′,4′-Difluoro-6-((S)-pyrrolidin-3-yloxy)-N-(6-((S)-pyrrolidin-3-yloxy)-3′-(2h-tetrazol-5-yl)-[1,1′-biphenyl]-3-yl)-[1,1′-biphenyl]-3-carboxamide dihydrochloride] |  | 3.91 ± 0.734 | 
O=C(Nc1ccc(O[C@H]2CCNC2)c(-c2ccc(-c3nn[nH]n3)cc2)c1)c1ccc(O[C@H]2CCNC2)c(-c2ccc(F)c(F)c2)c1 [Compound 91l, 3′,4′-Difluoro-6-((S)-pyrrolidin-3-yloxy)-N-(6-((S)-pyrrolidin-3-yloxy)-4′-(2h-tetrazol-5-yl)-[1,1′-biphenyl]-3-yl)-[1,1′-biphenyl]-3-carboxamide dihydrochloride] |  | 19.9 ± 4.87 | 
O=C(Nc1ccc(O[C@H]2CCNC2)c(-c2ccc(F)nc2)c1)c1ccc(O[C@H]2CCNC2)c(-c2ccc(F)c(F)c2)c1 [Compound 91m, 3′,4′-Difluoro-N-(3-(6-fluoropyridin-3-yl)-4-((S)-pyrrolidin-3-yloxy)phenyl)-6-((S)-pyrrolidin-3-yloxy)-[1,1′-biphenyl]-3-carboxamide dihydrochloride] |  | 124 ± 10.4 | 
O=C(Nc1ccc(O[C@H]2CCNC2)c(-c2ccc(F)cc2)c1)c1ccc(O[C@H]2CCNC2)c(-c2ccc(F)nc2)c1 [Compound 95, N-(4′-fluoro-6-((S)-pyrrolidin-3-yloxy)-[1,1′-biphenyl]-3-yl)-3-(6-fluoropyridin-3-yl)-4-((S)-pyrrolidin-3-yloxy)benzamide dihydrochloride] |  | 244 ± 13.3 | 
O=C(Nc1ccc(O[C@H]2CCNC2)c(-c2ccc(F)cc2)c1)c1ccc(O[C@H]2CCNC2)c(-c2ccc3cc(F)ccc3c2)c1 [Compound 96] |  | 7.17 ± 1.3 | 
O=C(Nc1ccc(O[C@H]2CCNC2)c(-c2ccc(F)cc2)c1)c1ccc(O[C@H]2CCNC2)c(-c2ccc3ccsc3c2)c1 [Compound 97] |  | 9.5 ± 1.12 | 
O=C(O)c1cccc(-c2cc(NC(=O)c3ccc(O[C@H]4CCNC4)c(-c4ccc(F)c(F)c4)c3)ccc2O[C@H]2CCNC2)c1 [Compound 98] |  | 180 ± 4.84 | 
O=C(O)c1ccc(-c2cc(NC(=O)c3ccc(O[C@H]4CCNC4)c(-c4ccc(F)c(F)c4)c3)ccc2O[C@H]2CCNC2)cc1 [Compound 99] |  | 156 ± 3.96 | 
CS(=O)(=O)Nc1cccc(C#Cc2cc(NC(=O)c3ccc(O[C@H]4CCNC4)c(-c4ccc(F)c(F)c4)c3)ccc2O[C@H]2CCNC2)c1 [Compound 101] |  | 56.2 ± 7.64 | 
CS(=O)(=O)Nc1cccc(-c2cc(NC(=O)c3ccc(O[C@H]4CCNC4)c(-c4ccc(F)c(F)c4)c3)ccc2O[C@H]2CCNC2)c1 [Compound 102] |  | 126 ± 10.3 | 
CC(=O)Nc1cccc(-c2cc(NC(=O)c3ccc(O[C@H]4CCNC4)c(-c4ccc(F)c(F)c4)c3)ccc2O[C@H]2CCNC2)c1 [Compound 103] |  | 96.4 ± 9.78 | 
